# Test results published in patent US8207142B2, “Inhibitor of DNA methylation” (priority 2001, dated 2012).
# Several values for one entry are separate records, joined by “and”; a condition that tells them apart may be missing. Equal entries are not always repeated.
# Tests used:
# [1] = system: DNA methylation of the am^RIP and ψ63 sequences; assay: Southern blot analysis of DNA methylation in N. crassa (Dpn II vs Sau3AI digests); format: cell-based, Neurospora crassa; settings: 12 and 24 μM 5-AC; 0.33 and 3.3 μM TSA; 20, 39, 78, 160 and 310 μM Zebularine
# Description: DNA was digested with Dpn II (D) or Sau3AI (S), fractionated by gel electrophoresis, transferred to a membrane and probed for am (FIG. 4A) or ψ63 (FIG. 4B) sequences. Dpn II and Sau3AI both recognize the sequence GATC, but Sau3AI fails to cleave if the C residue is methylated. Thus, differences between S and D lanes are indicative of DNA methylation.
# The ramp symbols at the top of the figure represent increasing concentrations of drug. Drug concentrations were 12 and 24 μM 5-AC; 0.33 and 3.3 μM TSA; and 20, 39, 78, 160 and 310 μM Zebularine. The positions of selected size standards (kb) are indicated.
# Southern hybridizations were performed on DNA samples (−1 μg) isolated from liquid cultures inoculated with 7×10^4 conidia/ml. DNA was digested with Dpn II (D) or Sau3AI (S), fractionated by gel electrophoresis, transferred to a nylon membrane and probed for am^RIP (FIG. 4A) or ψ63 (FIG. 4B) sequences. The restriction endonucleases Dpn II and-Sau3AI both recognize the sequence GATC, but Sau3AI fails to cleave if the C residue is methylated. Drug concentrations were […] 5-AC, 0.33 and 3.3 μM TSA, and […] Zebularine.
# The positions of selected size standards (kb) and the origin (ori) are indicated. […] Differences between S and D lanes are indicative of DNA methylation.
# 10T1/2 cells [2] = assay: Induction of a myogenic phenotype (myotube formation) in 10T1/2 cells; format: cell-based, mouse; set-up: key to Muscle Formation: + representing minimal muscle formation; scored for muscle cells 9-10 days later as + to +++; +++ representing maximal muscle formation; settings: for Muscle Formation: 24 hours treatment, scored 9-10 days later; for muscle formation (micrographs, in words): 10T1/2 cells, approximately 9-10 days after drug treatment
# Description: Cells were plated (3×10^5 cells/100-mm dish) and treated 24 hours later with the indicated concentrations of compounds. The medium was either changed 24 hours or 48 hours after drug treatment. Myotube formation was assayed in 10T1/2 cells as previously described (Constantinides et al., Nature 267:364-366, 1977). […] The ability of Zebularine to cause 10T1/2 cells to undergo the myogenic switch was therefore tested (FIG. 7).
# p3 locus = assay: Ms-SNuPE quantitation of DNA methylation in 10T1/2 cells; format: cell-based, mouse; settings: 24 hours, control 86
# Description: (§1) The average methylation at defined CpG sites was quantitated using a Ms-SNuPE assay, as described by Gonzalgo and Jones (Nucleic Acids Res. 25:2529-2531, 1997) and U.S. Pat. No. 6,251,594. Briefly, genomic DNA (˜4 μg) was digested overnight with 4 units of EcoRI (Boehringer Mannheim) (p16 promoter/exon 1 and p16 exon 2; FIG. 9A) or with 4 units of RsaI (Boehringer Mannheim) (P3; FIG. 9B) to cut outside the region of interest.
# (§2) After standard treatment with sodium bisulfite, a PCR product of the region was generated as template for top-strand methylation analysis. The sequences of the primers used for bisulfite-treated DNA amplification were as follows: […]
# P3: 95° C. for 2 minutes, 95° C. for 1 minute, 50° C. for 50 seconds, and 72° C. for 1 minute for 40 cycles, with a final extension at 72° C. for 10 minutes.
# (§3) Duplicates of 4 μl of template were then added to 6 μl of mixture consisting of 1× PCR buffer, 1 μM final concentration primers, 1 μCi of [^32P]dCTP or dTTP, and 1 unit 1:1 Taq/TaqStart antibody (Clontech, Palo Alto, Calif.). Single nucleotide extension involved incubation at 95° C. for 1 minute, then 50° C. for 2 minutes, and finally 72° C. for 1 minute (p16 promoter/exon1 and P16 exon 2) and 95° C. for 1 minute, then 46° C. for 30 seconds, and finally 72° C. for 20 seconds (P3). The sequences for SNuPE primers were as follows: […]
# (§4) After briefly spinning down the tubes, 4 μl of stop solution were added to the 10-μl reaction volume, and the samples were boiled for 5 minutes at 95° C. before loading 1.5 μl onto a 15% denaturing polyacrylamide gel (7 M urea). The gel was run at 90 W for 1.5 hours and then dried at 80° C. for 40 minutes. The gel was exposed to a phosphorimaging cassette for quantitation of the ratio of [^32P]dCTP versus [^32P]dTTP incorporation, and the quantitation of the percent methylation was averaged from three separate CpG sites. The gel was then exposed to BioMax MR film (Kodak) to record experimental results.
# 10T1/2 cells [3] = assay: Colony-formation assay (plating efficiency) in 10T1/2 cells; format: cell-based, mouse; settings: for Ave. Plating Efficiency (%): 250 cells, stained after 14-16 days, control 22; for decrease in plating deficiency (cytotoxicity) / cell death observed: 10T1/2 cells; for cell death observed: 0.3 μM 5-Aza-CdR, 3 μM 5-Aza-CR, 30 μM Zebularine
# Description: (§5) The percentage cell survival was assessed by dividing the mean colony number on the treated plates divided by the mean colony number on the untreated plates ×100.
# p16 promoter = assay: Ms-SNuPE quantitation of DNA methylation in T24 cells, p16 promoter; format: cell-based, human; settings: control 96
# Description: as §1, §2
# p16 promoter/exon 1: 94° C. for 3 minutes, 94° C. for 45 seconds, 67° C. for 45 seconds, and 72° C. for 45 seconds for 40 cycles, with a final extension step at 72° C. for 10 minutes.
# as §3, §4
# T24 cells = assay: Colony-formation assay (decrease in plating efficiency) in T24 cells; format: cell-based, human
# Description: as §5
compound,measurement,setting,value
"O=c1ncccn1[C@@H]1O[C@H](CO)[C@@H](O)[C@H]1O [Zebularine, 1-β-ribofuranosyl-1,2-dihydropyrimidin-2-one]",effect on DNA methylation (Southern blot),[1],inhibits DNA methylation globally
same,Muscle Formation,10T1/2 cells [2]; 10 μM,+
same,Muscle Formation,10T1/2 cells [2]; 30 μM,++
same,"muscle formation (micrographs, in words)",10T1/2 cells [2],induced muscle formation in 10T1/2 cells
same,% Methylation,p3 locus; 10 μM,75 +/− 2%
same,% Methylation,p3 locus; 30 μM,58% and 58 +/− 1%
same,Ave. Plating Efficiency (%),10T1/2 cells [3]; 10 μM,20%
same,Ave. Plating Efficiency (%),10T1/2 cells [3]; 30 μM,18%
same,decrease in plating deficiency (cytotoxicity),10T1/2 cells [3],17%
same,cell death observed,10T1/2 cells [3],only very little cell death
same,p16 Promoter Methylation (%),"p16 promoter; 300 μM, 24 hrs",91% and 91 +/− 1%
same,p16 Promoter Methylation (%),"p16 promoter; 300 μM, 48 hrs",80% and 80 +/− 1%
same,p16 Promoter Methylation (%),"p16 promoter; 500 μM, 24 hrs",85% and 85 +/− 1%
same,p16 Promoter Methylation (%),"p16 promoter; 500 μM, 48 hrs",77% and 77 +/− 2%
same,p16 Promoter Methylation (%),"p16 promoter; 1000 μM, 24 hrs",72% and 72 +/− 2%
same,p16 Promoter Methylation (%),"p16 promoter; 1000 μM, 48 hrs",68% and 68 +/− 2%
same,Toxicity (%) (decrease in plating efficiency),"T24 cells; 300 μM, 24 hrs",1%
same,Toxicity (%) (decrease in plating efficiency),"T24 cells; 300 μM, 48 hrs",2%
same,Toxicity (%) (decrease in plating efficiency),"T24 cells; 500 μM, 24 hrs",7%
same,Toxicity (%) (decrease in plating efficiency),"T24 cells; 500 μM, 48 hrs",8%
same,Toxicity (%) (decrease in plating efficiency),"T24 cells; 1000 μM (1 mM), 48 hrs",23%
same,Toxicity (%) (decrease in plating efficiency),"T24 cells; 1000 μM, 24 hrs",18%
"Nc1ncn([C@@H]2O[C@H](CO)[C@@H](O)[C@H]2O)c(=O)n1 [5-Aza-CR, 5-azacytidine, reference compound]",effect on DNA methylation (Southern blot),[1],inhibits DNA methylation globally
same,Muscle Formation,10T1/2 cells [2]; 1 μM,++
same,Muscle Formation,10T1/2 cells [2]; 3 μM,+++
same,"muscle formation (micrographs, in words)",10T1/2 cells [2],formed multinucleated myotubes
same,% Methylation,p3 locus; 1 μM,65 +/− 2%
same,% Methylation,p3 locus; 3 μM,59% and 59 +/− 6%
same,Ave. Plating Efficiency (%),10T1/2 cells [3]; 1 μM,21%
same,decrease in plating deficiency (cytotoxicity),10T1/2 cells [3]; 3 μM,24%
same,Ave. Plating Efficiency (%),10T1/2 cells [3]; 3 μM,16%
same,cell death observed,10T1/2 cells [3],appreciable cell death
same,p16 Promoter Methylation (%),"p16 promoter; 3 μM, 24 hrs",91% and 91 +/− 1%
same,p16 Promoter Methylation (%),"p16 promoter; 10 μM, 24 hrs",83 +/− 2%
same,p16 Promoter Methylation (%),"p16 promoter; 30 μM, 24 hrs",73 +/− 2%
same,p16 Promoter Methylation (%),"p16 promoter; 100 μM, 24 hrs",68% and 68 +/− 2%
same,Toxicity (%) (decrease in plating efficiency),"T24 cells; 3 μM, 24 hrs",2%
same,Toxicity (%) (decrease in plating efficiency),"T24 cells; 10 μM, 24 hrs",12%
same,Toxicity (%) (decrease in plating efficiency),"T24 cells; 30 μM, 24 hrs",30%
same,Toxicity (%) (decrease in plating efficiency),"T24 cells; 100 μM, 24 hrs",54%
